pEC50, pIC50: −log10 of the molar value.
Key:
A2780 cells = assay: Viability assay in A2780 (Cell Titer Glo); type: cell-based, human; details: Homo sapiens; A2780 cells; read-out: A2780 Cell prolif. EC50
Procedure, shortened: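 EC50 values come from Cell Titer Glo luminescence after 72 hrs of compound exposure at 37° C, run in duplicate. A2780 cells were plated at 1,000 per well in DMEM with 10% FBS and dosed with 3-fold serial dilutions.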

[1] = tested on: pSer473-Akt in A2780 cells; assay: pSer473 Akt assay to monitor PI3K pathway in A2780 cells (MSD); type: cell-based; details: Homo sapiens; A2780 cells; read-out: A2780 pAKT 473 EC50
Procedure, shortened: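 EC50 is derived from percent inhibition of Akt Ser473 phosphorylation, normalised to total Akt and compared with DMSO-only wells, read by MSD immunoassay. Lysates came from A2780 cells plated overnight at 15,000/well and exposed to compound for one hour at 37 °C.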

PI3 K Alpha = PI3 K Alpha (Homo sapiens, UniProt P42336); assay: PI3 kinase phosphorylation assays (homogenous solution phase, one step solid phase, ATP depletion/KinaseGlo); type: biochemical; details: read-out: PI3K Alpha IC50
Chain of PI3 K Alpha (P42336 whole entry): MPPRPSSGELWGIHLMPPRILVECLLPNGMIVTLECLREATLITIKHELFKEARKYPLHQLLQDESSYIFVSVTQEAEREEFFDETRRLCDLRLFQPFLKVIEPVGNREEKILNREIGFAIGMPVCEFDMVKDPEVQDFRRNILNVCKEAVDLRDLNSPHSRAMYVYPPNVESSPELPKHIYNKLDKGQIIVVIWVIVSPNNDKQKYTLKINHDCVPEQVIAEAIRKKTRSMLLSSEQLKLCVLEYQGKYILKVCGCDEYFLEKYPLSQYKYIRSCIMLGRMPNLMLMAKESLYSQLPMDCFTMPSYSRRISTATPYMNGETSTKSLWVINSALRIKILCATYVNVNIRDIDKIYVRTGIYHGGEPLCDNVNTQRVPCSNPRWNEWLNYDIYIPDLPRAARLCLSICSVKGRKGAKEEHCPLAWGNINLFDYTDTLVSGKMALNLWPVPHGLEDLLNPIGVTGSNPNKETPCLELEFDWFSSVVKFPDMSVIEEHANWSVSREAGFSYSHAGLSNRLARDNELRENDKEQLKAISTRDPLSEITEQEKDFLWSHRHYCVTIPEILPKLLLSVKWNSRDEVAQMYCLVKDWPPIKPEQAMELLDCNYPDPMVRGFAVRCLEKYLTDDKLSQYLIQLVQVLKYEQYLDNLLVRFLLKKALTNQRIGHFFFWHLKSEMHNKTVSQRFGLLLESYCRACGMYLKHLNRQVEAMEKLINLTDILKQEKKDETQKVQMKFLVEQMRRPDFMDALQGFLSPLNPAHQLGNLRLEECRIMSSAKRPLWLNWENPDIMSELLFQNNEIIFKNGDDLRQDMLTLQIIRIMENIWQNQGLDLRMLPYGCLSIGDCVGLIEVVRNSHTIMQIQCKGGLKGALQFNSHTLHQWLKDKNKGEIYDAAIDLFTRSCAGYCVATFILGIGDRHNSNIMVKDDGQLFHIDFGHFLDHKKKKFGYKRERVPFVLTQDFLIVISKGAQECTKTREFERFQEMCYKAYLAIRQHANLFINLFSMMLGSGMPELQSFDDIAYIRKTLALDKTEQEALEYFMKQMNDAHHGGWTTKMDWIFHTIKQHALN
Chain of PI3 K Alpha (P27986 whole entry partner): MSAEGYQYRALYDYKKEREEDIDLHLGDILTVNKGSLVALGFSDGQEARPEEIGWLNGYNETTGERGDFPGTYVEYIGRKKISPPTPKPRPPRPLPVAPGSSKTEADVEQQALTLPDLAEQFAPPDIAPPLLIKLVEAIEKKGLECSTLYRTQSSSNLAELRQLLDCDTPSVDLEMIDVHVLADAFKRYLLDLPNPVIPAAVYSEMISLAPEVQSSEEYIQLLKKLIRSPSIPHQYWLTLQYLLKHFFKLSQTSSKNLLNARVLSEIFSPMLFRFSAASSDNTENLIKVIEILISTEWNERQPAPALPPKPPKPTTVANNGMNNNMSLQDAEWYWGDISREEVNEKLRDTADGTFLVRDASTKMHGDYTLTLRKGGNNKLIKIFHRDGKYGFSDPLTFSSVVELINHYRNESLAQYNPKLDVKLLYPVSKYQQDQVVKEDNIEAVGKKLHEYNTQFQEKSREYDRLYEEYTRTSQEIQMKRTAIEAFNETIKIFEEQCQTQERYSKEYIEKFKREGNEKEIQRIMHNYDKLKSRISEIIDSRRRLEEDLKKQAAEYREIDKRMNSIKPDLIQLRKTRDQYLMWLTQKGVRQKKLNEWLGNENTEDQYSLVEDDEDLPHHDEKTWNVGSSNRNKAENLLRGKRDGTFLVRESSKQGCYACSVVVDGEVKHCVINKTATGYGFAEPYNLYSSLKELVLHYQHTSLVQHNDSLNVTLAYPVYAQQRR

Structure (SMILES) | pEC50 (A2780 cells) | pEC50 [1] | pIC50 (PI3 K Alpha)
CC(=O)Nc1cn2cc(-c3cnc(N)c(-c4ccccc4N4CCOCC4)c3)ccc2n1 [Example 105, N-(6-(6-amino-5-(2-morpholino-phenyl)pyridin-3-yl)imidazo[1,2-a]pyridin-2-yl)acetamide] | > 6.00 | > 6.00 | > 6.00
CC(=O)Nc1cn2nc(-c3cnc(N)c(-c4ccc(C(F)(F)F)cc4)c3)ccc2n1 [Example 107, N-(6-(6-amino-5-(4-(trifluoromethyl)phenyl)pyridin-3-yl)imidazo[1,2-b]pyridazin-2-yl)acetamide] | > 6.00 | > 6.00 | > 6.00
Nc1ncc(-c2ccc3nc(NC(=O)CCCN4CCOCC4)cn3n2)cc1C(F)(F)F [Example 108, N-(6-(6-amino-5-(trifluoromethyl)pyridin-3-yl)imidazo[1,2-b]pyridazin-2-yl)-4-morpholino-butanamide] | > 6.00 | > 6.00 | > 6.00
Nc1ncc(-c2ccc3nc(NC(=O)Cc4cccc5ccccc45)cn3c2)cc1C(F)(F)F [Example 110, N-(6-(6-amino-5-(trifluoromethyl)pyridin-3-yl)imidazo[1,2-a]pyridin-2-yl)-2-(naphthalen-1-yl)acetamide] | > 6.00 | > 6.00 | > 6.00
CC(=O)Nc1cn2cc(-c3cnc(N)c(-c4ccccc4)n3)ccc2n1 [Example 113, N-(6-(5-amino-6-phenylpyrazin-2-yl)imidazo[1,2-a]pyridin-2-yl)acetamide] | > 5.00 | > 6.00 | > 6.00
CC(=O)Nc1cn2cc(-c3cnc(N)c(-c4ccccc4F)c3)ccc2n1 [Example 114, N-(6-(6-amino-5-(2-fluorophenyl)pyridin-3-yl)imidazo[1,2-a]pyridin-2-yl)acetamide] | > 5.00 | > 6.00 | > 6.00
CC(=O)Nc1cn2nc(-c3cnc(N)c(-c4ccccc4Oc4ccccc4)c3)ccc2n1 [Example 115, N-(6-(6-amino-5-(2-phenoxyphenyl)pyridin-3-yl)imidazo[1,2-b]pyridazin-2-yl)acetamide] | > 5.00 | > 6.00 | > 6.00
Nc1ncc(-c2ccc3nc(NC(=O)C4CNC4)cn3n2)cc1C(F)(F)F [Example 116, N-(6-(6-amino-5-(trifluoromethyl)pyridin-3-yl)imidazo[1,2 b]pyridazin-2-yl)azetidine-3-carboxamide] | > 5.00 | > 6.00 | > 6.00
COc1ccc(C#Cc2c(NC(C)=O)nc3ccc(-c4cnc(N)c(C(F)(F)F)c4)cn23)cc1 [Example 117, N-(6-(6-amino-5-(trifluoromethyl)pyridin-3-yl)-3-((4-methoxyphenyl)ethynyl)imidazo[1,2-a]pyridin-2-yl)acetamide] | > 5.00 | > 6.00 | > 6.00
CCOCC(=O)Nc1cn2nc(-c3cnc(N)c(C(F)(F)F)c3)ccc2n1 [Example 118, N-(6-(6-amino-5-(trifluoromethyl)pyridin-3-yl)imidazo[1,2-b]pyridazin-2-yl)-2-ethoxyacetamide] | > 5.00 | > 6.00 | > 6.00
CC(=O)Nc1cn2cc(-c3cnc(N)c(-c4ccccc4C(F)(F)F)c3)ccc2n1 [Example 120, N-(6-(6-amino-5-(2-(trifluoromethyl)phenyl)pyridin-3-yl)imidazo[1,2-a]pyridin-2-yl)acetamide] | > 5.00 | > 6.00 | > 6.00
CC(=O)Nc1cn2cc(-c3cnc(N)c(-c4ccccc4OC(F)(F)F)c3)ccc2n1 [Example 121, N-(6-(6-amino-5-(2-(trifluoromethoxy)phenyl)pyridin-3-yl)imidazo[1,2-a]pyridin-2-yl)acetamide] | > 5.00 | > 6.00 | > 6.00
CNCC(=O)Nc1cn2cc(-c3cnc(N)c(OCCOC)n3)ccc2n1 [Example 122, N-(6-(5-amino-6-(2-methoxyethoxy)pyrazin-2-yl)imidazo[1,2-a]pyridin-2-yl)-2-(methylamino) acetamide] | > 5.00 | > 6.00 | > 6.00
Nc1ncc(-c2ccc3nc(NC(=O)c4cccnc4)cn3c2)cc1C(F)(F)F [Example 123, N-(6-(6-amino-5-(trifluoromethyl)pyridin-3-yl)imidazo[1,2-a]pyridin-2-yl)nicotinamide] | > 5.00 | > 6.00 | > 6.00
CC(=O)Nc1cn2cc(-c3cnc(N)c(-c4ccccc4)c3)ccc2n1 [Example 124, N-(6-(6-amino-5-phenylpyridin-3-yl)imidazo[1,2-a]pyridin-2-yl)acetamide] | > 5.00 | > 6.00 | > 6.00

Results, then the compound that gave them:

pEC50 (A2780 cells) | pEC50 [1] | pIC50 (PI3 K Alpha) | Structure (SMILES)
> 6.00 | > 6.00 | > 6.00 | CC(=O)Nc1cn2nc(-c3cnc(N)c(-c4ccccc4OC(F)(F)F)c3)ccc2n1 [Example 90, N-(6-(6-amino-5-(2-(trifluoromethoxy)phenyl)pyridin-3-yl)imidazo[1,2-b]pyridazin-2-yl)acetamide]
> 6.00 | > 6.00 | > 6.00 | CC(=O)Nc1cn2cc(-c3cnc(N)c(Oc4cccnc4)n3)ccc2n1 [Example 91, N-(6-(5-amino-6-(pyridin-3-yloxy)pyrazin-2-yl)imidazo[1,2-a]pyridin-2-yl)acetamide]
> 6.00 | > 5.00 | > 6.00 | CC(=O)Nc1cn2cc(-c3cnc(N)c(-c4cccc(OC(F)(F)F)c4)c3)ccc2n1 [Example 92, N-(6-(6-amino-5-(3-(trifluoromethoxy)phenyl)pyridin-3-yl)imidazo[1,2-a]pyridin-2-yl)acetamide]
> 6.00 | > 6.00 | > 6.00 | CC(=O)Nc1cn2cc(-c3cnc(N)c(-c4ccc(C(F)(F)F)cc4)c3)ccc2n1 [Example 93, N-(6-(6-amino-5-(4-(trifluoromethyl)phenyl)pyridin-3-yl)imidazo[1,2-a]pyridin-2-yl)acetamide]
> 6.00 | > 6.00 | > 6.00 | Cc1cc(C(=O)Nc2cn3cc(-c4cnc(N)c(C(F)(F)F)c4)ccc3n2)no1 [Example 94, N-(6-(6-amino-5-(trifluoromethyl)pyridin-3-yl)imidazo[1,2-a]pyridin-2-yl)-5-methylisoxazole-3-carboxamide]
> 6.00 | > 6.00 | > 6.00 | CC(=O)Nc1cn2nc(-c3cnc(N)c(-c4ccn(C)n4)c3)ccc2n1 [Example 95, N-(6-(6-amino-5-(1-methyl-1H-pyrazol-3-yl)pyridin-3-yl)imidazo[1,2-b]pyridazin-2-yl)acetamide]
> 6.00 | > 6.00 | > 6.00 | CCC(=O)Nc1cn2nc(-c3cnc(N)c(C(F)(F)F)c3)ccc2n1 [Example 96, N-(6-(6-amino-5-(trifluoromethyl)pyridin-3-yl)imidazo[1,2-b]pyridazin-2-yl)propionamide]
> 6.00 | > 5.00 | > 6.00 | CC(=O)Nc1cn2cc(-c3cnc(N)c(-c4ccc(OC(F)(F)F)cc4)c3)ccc2n1 [Example 97, N-(6-(6-amino-5-(4-(trifluoromethoxy)phenyl)pyridin-3-yl)imidazo[1,2-a]pyridin-2-yl)acetamide]
> 6.00 | > 6.00 | > 6.00 | CC(C)(C)OC(=O)N1CC[C@H](OCC(=O)Nc2cn3nc(-c4cnc(N)c(C(F)(F)F)c4)ccc3n2)C1 [Example 98, (S)-tert-butyl 3-(2-(6-(6-amino-5-(trifluoromethyl)pyridin-3-yl)imidazo[1,2-b]pyridazin-2-ylamino)-2-oxoethoxy) pyrrolidine-1-carboxylate]
> 6.00 | > 6.00 | > 6.00 | COc1ccc(CC(=O)Nc2cn3cc(-c4cnc(N)c(C(F)(F)F)c4)ccc3n2)cc1 [Example 99, N-(6-(6-amino-5-(trifluoromethyl)pyridin-3-yl)imidazo[1,2-a]pyridin-2-yl)-2-(4-methoxyphenyl) acetamide]
> 6.00 | > 6.00 | > 6.00 | CC(=O)Nc1cn2cc(-c3cnc(N)c(C(=O)NCCN4CCCC4)n3)ccc2n1 [Example 100, 6-(2-acetamido-imidazo[1,2-a]pyridin-6-yl)-3-amino-N-(2-(pyrrolidin-1-yl)ethyl) pyrazine-2-carboxamide]
> 6.00 | > 6.00 | > 6.00 | CC(C)(C)OC(=O)N1CC[C@@H](OCC(=O)Nc2cn3nc(-c4cnc(N)c(C(F)(F)F)c4)ccc3n2)C1 [Example 102, (R)-tert-butyl 3-(2-(6-(6-amino-5-(trifluoromethyl)pyridin-3-yl)imidazo[1,2-b]pyridazin-2-ylamino)-2-oxoethoxy) pyrrolidine-1-carboxylate]
> 6.00 | > 6.00 | > 6.00 | CC(=O)Nc1cn2nc(-c3cnc(N)c(C(=O)NCCNC(=O)OC(C)(C)C)c3)ccc2n1 [Example 103, tert-butyl 2-(5-(2-acetamido-imidazo[1,2-b]pyridazin-6-yl)-2-aminonicotin-amido)ethyl-carbamate]
> 6.00 | > 6.00 | > 6.00 | CCN1CCCCC1CCC(=O)Nc1cn2nc(-c3cnc(N)c(C(F)(F)F)c3)ccc2n1 (stereo not drawn) [Example 104, N-(6-(6-amino-5-(trifluoromethyl)pyridin-3-yl)imidazo[1,2-b]pyridazin-2-yl)-3-(1-ethylpiperidin-2-yl)propanamide]

Source: US20100075965A1, “PI3 KINASE INHIBITORS AND METHODS OF THEIR USE” (Novartis AG, priority 2006, published 2010)
